Results published in ChEMBL document CHEMBL1201862, “PubChem BioAssay data set” (2004).
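Dose response: 5 concentrations. Exposure: 48 h. Format: 96-well plates. Endpoint: linear interpolation; highest concentration if not reached. GI50 is the concentration that inhibits growth by half.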 Calls of active or inactive are those of the source. No stated cut-off is given here; in the data, active = GI50 up to about 1.1 µM and inactive = higher.

Experiments:
Test in all cases: inhibition of tumour cell growth, NCI panel, 48 h
CCRF-CEM = system: CCRF-CEM
UO-31 = system: UO-31
786-0 = system: 786-0
K562 = system: K562
UACC-257 = system: UACC-257
MDA-MB-435 = system: MDA-MB-435
MCF7 = system: MCF7
KM12 = system: KM12
PC-3 = system: PC-3
SNB-75 = system: SNB-75
NCI-H23 = system: NCI-H23
OVCAR-3 = system: OVCAR-3
ACHN = system: ACHN
SK-OV-3 = system: SK-OV-3
A549 = system: A549
A498 = system: A498
SW-620 = system: SW-620
HOP-92 = system: HOP-92
HCT-15 = system: HCT-15
MOLT-4 = system: MOLT-4

SMILES | GI50 (CCRF-CEM) | GI50 (UO-31) | GI50 (786-0) | GI50 (K562) | GI50 (UACC-257) | GI50 (MDA-MB-435) | GI50 (MCF7) | GI50 (KM12) | GI50 (PC-3) | GI50 (SNB-75) | GI50 (NCI-H23) | GI50 (OVCAR-3) | GI50 (ACHN) | GI50 (SK-OV-3) | GI50 (A549) | GI50 (A498) | GI50 (SW-620) | GI50 (HOP-92) | GI50 (HCT-15) [µM] | GI50 (MOLT-4)
O=Nc1ccc(O)c2ncccc12 | 0.611 µM (active) | 2.98 µM (inactive) | 4.2 µM (inactive) | 0.711 µM (active) | 6.37 µM (inactive) | 1.26 µM (inactive) | 1.76 µM (inactive) | 5.19 µM (inactive) | 14.7 µM (inactive) | 2.51 µM (inactive) | 0.762 µM (active) | 3.33 µM (inactive) | 3.13 µM (inactive) | 12.6 µM (inactive) | 2.5 µM (inactive) | 18.5 µM (inactive) | 4.79 µM (inactive) | 3.09 µM (inactive) | 2.52 | –
BrCC[N+]12CC[N+](CCBr)(CC1)C2 | > 100 µM (inactive) | > 100 µM (inactive) | > 100 µM (inactive) | > 100 µM (inactive) | > 100 µM (inactive) | > 100 µM (inactive) | > 100 µM (inactive) | > 100 µM (inactive) | > 100 µM (inactive) | > 100 µM (inactive) | > 100 µM (inactive) | > 100 µM (inactive) | > 100 µM (inactive) | > 100 µM (inactive) | > 100 µM (inactive) | > 100 µM (inactive) | > 100 µM (inactive) | > 100 µM (inactive) | > 100 | > 100 µM (inactive)
O=C(O)c1nn[nH]c1S | > 100 µM (inactive) | > 100 µM (inactive) | > 100 µM (inactive) | > 100 µM (inactive) | > 100 µM (inactive) | > 100 µM (inactive) | > 100 µM (inactive) | > 100 µM (inactive) | > 100 µM (inactive) | > 100 µM (inactive) | > 100 µM (inactive) | > 100 µM (inactive) | > 100 µM (inactive) | > 100 µM (inactive) | > 100 µM (inactive) | > 100 µM (inactive) | > 100 µM (inactive) | 4.59 µM (inactive) | > 100 | > 100 µM (inactive)
O=C(c1ccco1)N(C(=O)N1CCN(c2ccccc2)CC1)S(=O)(=O)c1ccccc1 | 27 µM (inactive) | 21.9 µM (inactive) | 32.1 µM (inactive) | 33 µM (inactive) | 32 µM (inactive) | 23.3 µM (inactive) | 29.4 µM (inactive) | 37.8 µM (inactive) | 28.6 µM (inactive) | 24.5 µM (inactive) | 23.7 µM (inactive) | 26.9 µM (inactive) | 24.7 µM (inactive) | > 100 µM (inactive) | 34.4 µM (inactive) | 37.5 µM (inactive) | 38.5 µM (inactive) | 27.3 µM (inactive) | 33.4 | 21.9 µM (inactive)
COc1ccc(/C=C2/CSC/C(=C/c3ccc(OC)c(OC)c3)C2=O)cc1OC | 0.849 µM (active) | 4.65 µM (inactive) | 2.02 µM (inactive) | 1.42 µM (inactive) | 4.11 µM (inactive) | 2.97 µM (inactive) | 2.22 µM (inactive) | 0.798 µM (active) | 3.03 µM (inactive) | 6.4 µM (inactive) | 2.3 µM (inactive) | 2 µM (inactive) | 2.31 µM (inactive) | 6.73 µM (inactive) | 2.27 µM (inactive) | 4.93 µM (inactive) | 1.19 µM (inactive) | 8.93 µM (inactive) | 1.52 | 1.74 µM (inactive)
Cc1[nH]c(=O)[nH]c(=S)c1C(=O)NC(C)(CO)CO | > 100 µM (inactive) | > 100 µM (inactive) | > 100 µM (inactive) | > 100 µM (inactive) | > 100 µM (inactive) | > 100 µM (inactive) | > 100 µM (inactive) | > 100 µM (inactive) | > 100 µM (inactive) | > 100 µM (inactive) | > 100 µM (inactive) | > 100 µM (inactive) | > 100 µM (inactive) | > 100 µM (inactive) | > 100 µM (inactive) | > 100 µM (inactive) | > 100 µM (inactive) | > 100 µM (inactive) | > 100 | > 100 µM (inactive)
Cc1c(/C=N/NC(=S)Nc2cccc(Cl)c2)c(=O)n(-c2ccccc2)n1C | 22.6 µM (inactive) | 15.3 µM (inactive) | 18.3 µM (inactive) | 13.8 µM (inactive) | 32.4 µM (inactive) | > 100 µM (inactive) | 24.2 µM (inactive) | 18.7 µM (inactive) | 34.6 µM (inactive) | 15 µM (inactive) | 28.7 µM (inactive) | – | 14.7 µM (inactive) | 18.2 µM (inactive) | – | 3.14 µM (inactive) | 51.2 µM (inactive) | 13.3 µM (inactive) | 3.91 | 31.3 µM (inactive)
CC(=O)NC(CCC(=O)C=[N+]=[N-])C(=O)O (stereo not given) | > 100 µM (inactive) | > 100 µM (inactive) | > 100 µM (inactive) | > 100 µM (inactive) | > 100 µM (inactive) | > 100 µM (inactive) | > 100 µM (inactive) | > 100 µM (inactive) | > 100 µM (inactive) | > 100 µM (inactive) | > 100 µM (inactive) | > 100 µM (inactive) | > 100 µM (inactive) | > 100 µM (inactive) | > 100 µM (inactive) | > 100 µM (inactive) | > 100 µM (inactive) | > 100 µM (inactive) | > 100 | > 100 µM (inactive)
C=C1C(=O)C[C@H]2C(=C)C(=O)O[C@@H]2C2C1CC[C@@]2(C)O (stereo not given in full) | > 100 µM (inactive) | 23.2 µM (inactive) | 19.9 µM (inactive) | 16.3 µM (inactive) | 21.5 µM (inactive) | 30.3 µM (inactive) | 16 µM (inactive) | 50 µM (inactive) | 30.6 µM (inactive) | > 100 µM (inactive) | 24.9 µM (inactive) | 16.1 µM (inactive) | 12.2 µM (inactive) | > 100 µM (inactive) | 44.4 µM (inactive) | > 100 µM (inactive) | 23 µM (inactive) | 26.4 µM (inactive) | 17.7 | 23.2 µM (inactive)
C1=N\CCNCC/N=C/c2ccccc2OCc2cccc(n2)COc2ccccc2/1 | 3.33 µM (inactive) | 9.12 µM (inactive) | 6.7 µM (inactive) | 4.59 µM (inactive) | 29.2 µM (inactive) | 3.86 µM (inactive) | 4.13 µM (inactive) | 20.5 µM (inactive) | 19.2 µM (inactive) | 9.46 µM (inactive) | 12.9 µM (inactive) | 23.8 µM (inactive) | 31.2 µM (inactive) | 43.3 µM (inactive) | > 100 µM (inactive) | > 100 µM (inactive) | 7.05 µM (inactive) | 26.1 µM (inactive) | 4.69 | 6.43 µM (inactive)
[Se]=P(c1ccccc1)(c1ccccc1)c1ccc(C(c2ccccc2)=P(c2ccccc2)(c2ccccc2)c2ccccc2)cc1 | 0.495 µM (active) | 3.27 µM (inactive) | 1.2 µM (inactive) | 0.182 µM (active) | 0.817 µM (active) | 0.671 µM (active) | 0.695 µM (active) | 0.439 µM (active) | 0.8 µM (active) | 0.431 µM (active) | 0.891 µM (active) | 0.621 µM (active) | 2.44 µM (inactive) | 2.05 µM (inactive) | 1.44 µM (inactive) | 2.76 µM (inactive) | 1.19 µM (inactive) | 0.357 µM (active) | 4.55 | 1.32 µM (inactive)
COc1ccc(C(=O)Cn2c(C(=O)/C=C/c3ccco3)nc3ccccc32)cc1 | 25.1 µM (inactive) | 31.6 µM (inactive) | 31 µM (inactive) | 22.2 µM (inactive) | 27.4 µM (inactive) | 24.4 µM (inactive) | 19.4 µM (inactive) | 28.3 µM (inactive) | 36.3 µM (inactive) | 76.6 µM (inactive) | 42.4 µM (inactive) | 24.9 µM (inactive) | 42.8 µM (inactive) | 37.3 µM (inactive) | 42.8 µM (inactive) | 35.5 µM (inactive) | 31.4 µM (inactive) | 51.4 µM (inactive) | 33.3 | 15.8 µM (inactive)
CCC(N)(C(=O)O)C(C)C (stereo not given) | > 100 µM (inactive) | > 100 µM (inactive) | > 100 µM (inactive) | > 100 µM (inactive) | > 100 µM (inactive) | > 100 µM (inactive) | > 100 µM (inactive) | > 100 µM (inactive) | > 100 µM (inactive) | > 100 µM (inactive) | > 100 µM (inactive) | > 100 µM (inactive) | > 100 µM (inactive) | > 100 µM (inactive) | > 100 µM (inactive) | > 100 µM (inactive) | > 100 µM (inactive) | 34.8 µM (inactive) | > 100 | –
COc1ccccc1NCc1nnc(CCCCCCCCc2nnc(CNc3ccccc3OC)o2)o1 | > 100 µM (inactive) | > 100 µM (inactive) | > 100 µM (inactive) | > 100 µM (inactive) | > 100 µM (inactive) | > 100 µM (inactive) | > 100 µM (inactive) | > 100 µM (inactive) | > 100 µM (inactive) | > 100 µM (inactive) | > 100 µM (inactive) | > 100 µM (inactive) | > 100 µM (inactive) | > 100 µM (inactive) | > 100 µM (inactive) | > 100 µM (inactive) | – | > 100 µM (inactive) | > 100 | > 100 µM (inactive)
